Marks after values point to notes of the source that are not given here.
Experiments:
Assay type in all cases: cell-based, human
[1] = tested on: BAL macrophages from CBD subjects; experiment: Apoptosis (nuclear fragmentation) of CBD BAL macrophages; conditions: 100 μM BeSO4, 50 μg Be-ferritin adduct containing 270 picomoles of Be, or ferritin alone, mean±SEM
Description: FIG. 1. illustrates an exemplary histogram of (a) TUNEL (assay for DNA strand break) positive nuclear staining of CBD BAL macrophages after exposure to 100 μM BeSO4 and (b) nuclear fragmentation in CBD BAL macrophages exposed to Be-ferritin containing 270 picomoles of Be. (c) The percent (mean %±SEM) of CBD BAL cells (n=8) with TUNEL positive nuclei (black) or with fragmented nuclei (open) after exposure to 100 μM BeSO4. *p<0.05 versus the corresponding unstimulated control.
Cell Cultivation: Bronchoalveolar lavage (BAL) was performed as previously described. […] BAL macrophages and T cells were separated by an adherence method known in the art.

[2] = tested on: BAL lymphocytes from CBD and BeS subjects; experiment: Apoptosis of BAL lymphocytes
[3] = tested on: BAL cells (Be-specific BAL T cells); experiment: Beryllium lymphocyte proliferation test (BeLPT), BAL cells; conditions: for Peak CBD BAL cell BeLPT stimulation index, median (minimum, maximum): CBD BAL cells, n = 4, 10^-10 M Be-ferritin, 10^-4 M BeSO4, 10^-4 M Al2(SO4)3, ferritin

## O=S(=O)([O-])[O-].[Be+2] [BeSO4, Beryllium sulfate]
[1]
  BAL macrophages with apoptotic fragmented nuclei: 50%±6%
[2]
  Induction of apoptosis of BAL lymphocytes: did not induce
[3]; BeS subjects, peak SI after BeSO4 stimulation
  BAL BeLPT SI, median (minimum, maximum): 1.9 (1.2, 46)
[3]
  Peak CBD BAL cell BeLPT stimulation index, median (minimum, maximum): 18.5 (3.7, 124)**

## ferritin
[1]
  BAL macrophages with apoptotic fragmented nuclei: < 3%
[3]
  Peak CBD BAL cell BeLPT stimulation index, median (minimum, maximum): 1.1 (0.8, 1.3)

Source: US20070014723A1, “Methods and compositions for 10Beryllium complex probes” (priority 2005, published 2007)
